Assays:
TgAPN2 [1] = biological target: T1, TgAPN2 (Toxoplasma gondii, UniProt S8G5K8, N1303Q/N840Q); assay type: biochemical, Toxoplasma gondii ME49; details: relative to hArg = 100%; 10 µM ACC substrate, 0.5 nM enzyme
TgAPN2 [2] = biological target: T1, TgAPN2; test: TgAPN2 aminopeptidase activity under chelating conditions; assay type: biochemical, Toxoplasma gondii ME49; details: increasing EDTA concentration (0–200 mM); 20 nM enzyme, 15 µM substrate
TgAPN2 [3] = biological target: T1, TgAPN2; test: Michaelis-Menten kinetics of TgAPN2 with fluorogenic Mec substrates; assay type: biochemical, Toxoplasma gondii ME49; details: substrate of TgAPN2, 20 nM enzyme, 37°C, pH 8.0
recombinant TgAPN2 = details: ref [14]; cited from earlier work

For `N=C(N)NCCC[C@H](N)C(=O)O` [Arg], the “normalised relative activity of TgAPN2 toward P1 substrate” value (“normalised relative activity” below) (TgAPN2 [1]) was 81%.

For `O=C(O)CN(CCN(CC(=O)O)CC(=O)O)CC(=O)O` [EDTA], the “effect on TgAPN2 enzyme velocity” value (TgAPN2 [2]) was “reduction in enzyme velocity”.

Compound `Cc1cc(=O)oc2cc(NC(=O)[C@@H](N)CCCNC(=N)N)ccc12.Cl` [L-Arg-Mec, L-arginine-7-amido-4-methylcoumarin hydrochloride] has a Km (TgAPN2 [3]) of 148 ± 5.1 µM, a kcat (TgAPN2 [3]) of 1017 ± 15.2 s⁻¹ and a kcat (TgAPN2 [3]; listed as Arg-Mec) of 1017 s⁻¹.

`Cc1cc(=O)oc2cc(NC(=O)[C@@H](N)CC(C)C)ccc12.Cl` [L-Leu-Mec, L-leucine-7-amido-4-methylcoumarin hydrochloride] gave a Km (TgAPN2 [3]) of 31.8 ± 3 µM, a kcat (TgAPN2 [3]) of 1.32 ± 0.03 s⁻¹ and a kcat (TgAPN2 [3]; listed as Leu-Mec) of 1.32 s⁻¹.

For `CC(C)C[C@H](N)C(=O)O` [Leu], the “normalised relative activity” value (TgAPN2 [1]) was 26%.

In the case of `NCCCC[C@H](N)C(=O)O` [Lys], the “normalised relative activity” value (TgAPN2 [1]) is reported as 52%.

In the case of `CC(C)C[C@@H](N)[C@H](O)C(=O)N[C@H](C(=O)N[C@H](C(=O)N[C@@H](CC(=O)O)C(=O)O)C(C)C)C(C)C` [amastatin], the “inhibition of recombinant TgAPN2 (in words)” value (recombinant TgAPN2) is listed as “inhibited”.

For `CC(C)C[C@H](NC(=O)[C@@H](O)[C@H](N)Cc1ccccc1)C(=O)O` [bestatin], the “inhibition of recombinant TgAPN2 (in words)” value (recombinant TgAPN2) is listed as “inhibited”.

With `NC(N)=NCCCC[C@H](N)C(=O)O` [hArg, Homo-arginine] the “normalised relative activity” value (TgAPN2 [1]) was 100%.

With `N[C@@H](CCc1ccccc1)C(=O)O` [hPhe] the “normalised relative activity” value (TgAPN2 [1]) was 18%.

In the case of `N[C@@H](CCc1ccc(O)cc1)C(=O)O` [hTyr], the “normalised relative activity” value (TgAPN2 [1]) is reported as 54%.

From article PMC7557147 (Biochemical Journal, 2020)
